Data taken from ChEMBL document CHEMBL1201862, “PubChem BioAssay data set” (2004).
Active and inactive are the calls of the source.

Columns and labels:
[1] = molecular target: Mitochondrial peptide methionine sulfoxide reductase (Bos taurus, UniProt P54149); assay type: functional;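 note: absorbance read-out, biochemical high-throughput dose-response screen for MsrA inhibitors, confirmatory; recombinant bovine MsrA coupled to E. coli TrxB with NADPH and selenocystamine; potency is for inhibitors of MsrA activity on DMSO substrate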
[2] = blockers of CRF-binding protein–CRF-R2 complex – cell-based, uHTS hits, 384-well, dose response (AID 651639); assay type: functional, Homo sapiens; settings: read-out: IC50_Mean
[3] = molecular target: T1, Corticotropin-releasing factor receptor 2/Corticotropin-releasing factor-binding protein (Homo sapiens, UniProt P24387+Q13324); assay: Dose Response confirmation of uHTS hits for small molecule antagonists of the CRF-binding protein and CRF-R2 receptor complex.; assay type: functional; settings: read-out: IC50_Mean
T1 sequence (Q13324 whole entry): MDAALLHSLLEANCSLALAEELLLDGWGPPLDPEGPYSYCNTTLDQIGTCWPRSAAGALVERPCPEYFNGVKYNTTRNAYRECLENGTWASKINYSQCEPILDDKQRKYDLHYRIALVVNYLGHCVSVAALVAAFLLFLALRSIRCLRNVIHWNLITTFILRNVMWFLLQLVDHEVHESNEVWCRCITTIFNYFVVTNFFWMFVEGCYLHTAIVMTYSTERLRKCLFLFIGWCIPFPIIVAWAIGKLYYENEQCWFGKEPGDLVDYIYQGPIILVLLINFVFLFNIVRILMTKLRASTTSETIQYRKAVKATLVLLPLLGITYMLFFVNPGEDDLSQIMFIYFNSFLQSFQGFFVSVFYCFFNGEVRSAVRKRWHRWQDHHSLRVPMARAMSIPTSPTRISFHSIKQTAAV
T1 sequence (P24387 whole entry): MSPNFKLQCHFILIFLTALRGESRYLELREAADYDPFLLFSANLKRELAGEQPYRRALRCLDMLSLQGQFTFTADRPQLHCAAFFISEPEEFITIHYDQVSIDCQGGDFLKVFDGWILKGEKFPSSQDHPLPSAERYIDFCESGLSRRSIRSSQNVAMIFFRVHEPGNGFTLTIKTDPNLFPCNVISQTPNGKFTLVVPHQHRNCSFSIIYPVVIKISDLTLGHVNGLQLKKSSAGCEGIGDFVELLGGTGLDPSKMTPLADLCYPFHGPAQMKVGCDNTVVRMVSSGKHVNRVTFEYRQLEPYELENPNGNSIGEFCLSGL

[4] = molecular target: T1, Corticotropin-releasing factor receptor 2/Corticotropin-releasing factor-binding protein; assay: activators of CRF receptor 2 with binding protein – uHTS hits, confirmation (AID 602473); assay type: functional; settings: read-out: EC50_Mean
[5] = molecular target: T2, Tyrosyl-DNA phosphodiesterase 2 (Homo sapiens, UniProt O95551); assay: potency against TDP2 phosphodiesterase activity – biochemical, epi absorbance, IC50, dose response (AID 743297)
T2 sequence (O95551 whole entry): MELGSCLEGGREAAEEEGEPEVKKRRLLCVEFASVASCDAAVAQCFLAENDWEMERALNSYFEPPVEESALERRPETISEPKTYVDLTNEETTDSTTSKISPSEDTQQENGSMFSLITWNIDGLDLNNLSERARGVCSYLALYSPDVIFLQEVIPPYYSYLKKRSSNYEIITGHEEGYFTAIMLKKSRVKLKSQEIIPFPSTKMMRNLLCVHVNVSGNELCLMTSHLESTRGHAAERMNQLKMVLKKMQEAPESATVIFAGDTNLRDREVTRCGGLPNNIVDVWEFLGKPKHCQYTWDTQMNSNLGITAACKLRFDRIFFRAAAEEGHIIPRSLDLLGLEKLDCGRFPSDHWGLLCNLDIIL

[6] = molecular target: T3, Sentrin-specific protease 8 (Homo sapiens, UniProt Q96LD8); assay type: functional;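 note: kinetic enzyme assay of SENP8 cleaving a Nedd8 protein substrate, dose-response confirmation of screening hits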
T3 sequence (Q96LD8 whole entry): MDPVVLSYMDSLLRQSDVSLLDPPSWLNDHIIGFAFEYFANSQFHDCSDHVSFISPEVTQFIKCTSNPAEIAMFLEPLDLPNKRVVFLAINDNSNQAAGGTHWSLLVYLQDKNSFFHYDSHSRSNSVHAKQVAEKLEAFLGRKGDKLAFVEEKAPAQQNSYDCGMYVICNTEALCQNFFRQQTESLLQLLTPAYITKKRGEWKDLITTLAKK

[7] = molecular target: T4, Replicative DNA helicase DnaB (Mycobacterium tuberculosis, UniProt P9WMR3); assay: DnaB intein splicing inhibitors, dose response, biochemical, cell-free fluorescence (AID 449749); assay type: functional
T4 sequence (P9WMR3 whole entry): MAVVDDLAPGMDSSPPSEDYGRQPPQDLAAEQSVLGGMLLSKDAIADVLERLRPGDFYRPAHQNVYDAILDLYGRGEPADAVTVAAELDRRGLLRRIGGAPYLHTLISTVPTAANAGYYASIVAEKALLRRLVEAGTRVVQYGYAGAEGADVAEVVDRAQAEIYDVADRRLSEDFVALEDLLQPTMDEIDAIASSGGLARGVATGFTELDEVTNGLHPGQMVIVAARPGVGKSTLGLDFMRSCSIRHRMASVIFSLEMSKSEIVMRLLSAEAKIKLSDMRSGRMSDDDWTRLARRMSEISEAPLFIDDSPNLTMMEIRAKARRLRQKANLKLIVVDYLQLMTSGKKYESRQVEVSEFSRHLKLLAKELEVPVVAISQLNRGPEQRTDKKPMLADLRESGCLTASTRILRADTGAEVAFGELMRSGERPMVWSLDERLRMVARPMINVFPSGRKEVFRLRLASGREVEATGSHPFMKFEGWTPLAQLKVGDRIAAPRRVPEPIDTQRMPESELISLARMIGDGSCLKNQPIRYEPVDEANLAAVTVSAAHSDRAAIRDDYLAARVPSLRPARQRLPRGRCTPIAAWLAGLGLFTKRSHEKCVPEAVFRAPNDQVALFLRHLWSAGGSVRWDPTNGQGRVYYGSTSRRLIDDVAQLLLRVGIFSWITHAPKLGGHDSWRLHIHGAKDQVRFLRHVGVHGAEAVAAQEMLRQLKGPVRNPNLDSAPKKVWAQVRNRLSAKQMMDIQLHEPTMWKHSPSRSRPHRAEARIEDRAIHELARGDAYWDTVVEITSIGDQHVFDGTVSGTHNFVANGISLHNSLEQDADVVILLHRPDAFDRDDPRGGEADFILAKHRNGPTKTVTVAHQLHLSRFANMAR

[8] = molecular target: T5, Protein RecA (Mycobacterium tuberculosis, UniProt P9WHJ3); assay: Fluorescence Cell-Free Homogeneous Dose Retest to Identify Inhibitors of RecA-Intein Splicing Activity. [Related pubchem assays (depositor defined):AID2097, AID2223, AID489010, AID492950]; assay type: functional
T5 sequence (P9WHJ3 whole entry): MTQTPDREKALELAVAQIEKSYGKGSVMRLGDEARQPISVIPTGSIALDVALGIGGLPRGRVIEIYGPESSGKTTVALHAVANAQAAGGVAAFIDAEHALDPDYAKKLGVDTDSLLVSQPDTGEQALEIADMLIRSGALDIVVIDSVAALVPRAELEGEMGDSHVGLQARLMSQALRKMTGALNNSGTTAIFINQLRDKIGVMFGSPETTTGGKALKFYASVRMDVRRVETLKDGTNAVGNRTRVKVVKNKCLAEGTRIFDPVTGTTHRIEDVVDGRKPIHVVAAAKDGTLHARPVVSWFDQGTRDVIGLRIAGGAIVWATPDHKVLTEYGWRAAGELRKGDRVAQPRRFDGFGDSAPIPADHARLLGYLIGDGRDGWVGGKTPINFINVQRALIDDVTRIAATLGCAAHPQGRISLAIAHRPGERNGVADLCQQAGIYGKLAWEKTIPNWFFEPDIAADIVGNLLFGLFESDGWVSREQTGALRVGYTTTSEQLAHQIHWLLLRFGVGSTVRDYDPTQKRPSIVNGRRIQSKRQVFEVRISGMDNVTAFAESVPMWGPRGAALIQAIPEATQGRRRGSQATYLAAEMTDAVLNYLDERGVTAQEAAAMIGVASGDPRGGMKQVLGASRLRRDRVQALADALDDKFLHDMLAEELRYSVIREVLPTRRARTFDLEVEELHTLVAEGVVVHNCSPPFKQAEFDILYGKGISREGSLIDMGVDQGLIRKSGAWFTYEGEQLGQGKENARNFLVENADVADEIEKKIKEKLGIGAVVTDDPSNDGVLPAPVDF

[9] = molecular target: Interleukin-8 (Homo sapiens, UniProt P10145); assay: Dose Response confirmation of uHTS small molecule hits for cystic fibrosis induced NFkb Inhibitors in a PAF-induced IL8 counterscreen.; assay type: functional; settings: read-out: IC50_Mean
[10] = HIV-1 AD8 envelope cell-cell fusion blockers – cherry-pick, dose response (AID 652062); assay type: functional, cell-based;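 note: luciferase signal from cell-cell fusion driven by HIV-1 clade B AD8 Env; potency is for inhibitors of fusion seen as a drop in luminescence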
[11] = off-target signal loss in HeLa-CEM21 co-culture – HeLa F-luc CTL cells, cherry-picked, counter-screen for HIV-1 Env fusion inhibitor project, dose response (AID 652040); assay type: functional, cell-based;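 note: potency for signal decrease marking cytotoxic or nonspecific inhibition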
[12] = blockers of HIV-1 envelope-mediated cell-cell fusion – cherry-pick, dose response (AID 652057); assay type: functional, cell-based
[13] = (§1) Counterscreen for antagonists of the orexin 1 receptor (OX1R; HCRTR1): Fluorescence-based cell-based high throughput dose response assay to identify antagonists of the parental CHO cell line. [Related pubchem assays (depositor defined):AID434989, AID435008, AID463079, AID485270, AID492963, AID492964, AID492965, AID493232, AID504699, AID504701]; assay type: functional
[14] = molecular target: T6, Orexin receptor type 2 (Homo sapiens, UniProt O43614); assay: Counterscreen assay for antagonists of the orexin 1 receptor (OX1R; HCRTR1): Homogeneous Time Resolved Fluorescence (HTRF)-based cell-based dose response assay for antagonists of the orexin 2 receptor (OX2R; HCRTR2), run by assay provider.; assay type: functional
T6 sequence (O43614 whole entry): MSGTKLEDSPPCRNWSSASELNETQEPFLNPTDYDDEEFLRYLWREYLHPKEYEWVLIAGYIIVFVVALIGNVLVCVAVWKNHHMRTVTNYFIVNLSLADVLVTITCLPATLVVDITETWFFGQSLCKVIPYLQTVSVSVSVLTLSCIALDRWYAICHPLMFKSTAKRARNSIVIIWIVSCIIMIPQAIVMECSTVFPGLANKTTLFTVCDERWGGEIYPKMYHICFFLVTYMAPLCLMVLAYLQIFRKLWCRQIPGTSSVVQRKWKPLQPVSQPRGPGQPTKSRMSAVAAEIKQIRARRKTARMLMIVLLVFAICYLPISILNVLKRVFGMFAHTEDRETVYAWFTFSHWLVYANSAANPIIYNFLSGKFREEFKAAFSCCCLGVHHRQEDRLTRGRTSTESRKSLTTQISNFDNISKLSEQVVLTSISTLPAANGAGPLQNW

[15] = molecular target: T7, Orexin/Hypocretin receptor type 1 (Homo sapiens, UniProt O43613); assay: (§2) Fluorescence-based cell-based high throughput dose response assay for antagonists of the orexin 1 receptor (OX1R; HCRTR1). [Related pubchem assays (depositor defined):AID434989, AID435008, AID463079, AID485270, AID492963, AID492964, AID492965, AID493232, AID504717, AID504718]; assay type: functional
T7 sequence (O43613 whole entry): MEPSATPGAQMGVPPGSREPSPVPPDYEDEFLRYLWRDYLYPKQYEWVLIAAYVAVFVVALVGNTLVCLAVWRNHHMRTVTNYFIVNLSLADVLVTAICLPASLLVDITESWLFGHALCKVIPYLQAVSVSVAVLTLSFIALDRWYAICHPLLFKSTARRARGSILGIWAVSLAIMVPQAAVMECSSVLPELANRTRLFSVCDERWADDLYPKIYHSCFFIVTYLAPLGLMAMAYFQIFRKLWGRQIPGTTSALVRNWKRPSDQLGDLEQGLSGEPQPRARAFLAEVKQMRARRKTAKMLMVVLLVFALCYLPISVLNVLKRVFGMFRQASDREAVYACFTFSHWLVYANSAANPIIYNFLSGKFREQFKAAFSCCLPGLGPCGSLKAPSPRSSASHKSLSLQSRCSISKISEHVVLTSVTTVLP

[16] = molecular target: T6, Orexin receptor type 2; assay: Counterscreen assay for antagonists of the orexin 1 receptor (OX1R; HCRTR1): Fluorescence-based cell-based dose response assay for antagonists of the orexin 2 receptor (OX2R; HCRTR2), run by assay provider.; assay type: functional
[17] = system: CHO-K1; assay: as §1, with “Homogeneous time resolved fluorescence (HTRF)-based” for “Fluorescence-based”, “cell-based” for “cell-based high throughput”, “CHO-K1” for “CHO”; assay type: functional; settings: Cricetulus griseus;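 note: potency for inhibition of ATP-stimulated IP1 production as antagonists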
[18] = molecular target: T7, Orexin/Hypocretin receptor type 1; assay: as §2, with “Homogeneous Time Resolved Fluorescence (HTRF)-based” for “Fluorescence-based”; assay type: functional
[19] = molecular target: Prothrombin (Bos taurus, UniProt P00735); assay: thrombin protease inhibitors – biochemical, fluorescence polarization, uHTS hits, dose response (AID 602369); assay type: functional
[20] = molecular target: 26S proteasome non-ATPase regulatory subunit 14 (Homo sapiens, UniProt O00487); assay: inhibition of proteasome subunit RPN11 – biochemical, fluorescence polarization, uHTS hits, confirmation (AID 602368); assay type: functional
[21] = molecular target: DNA (cytosine-5)-methyltransferase 1 (Homo sapiens, UniProt P26358); assay: inhibition of DNA methylation by DNMT1 – biochemical, fluorescent molecular beacon, confirmation (AID 602386); assay type: functional
[22] = molecular target: 72 kDa type IV collagenase (Homo sapiens, UniProt P08253); assay: Dose Response validation of uHTS RPN11 inhibitor hits using a MMP-2 Fluorescence assay.; assay type: functional
72 kDa type IV collagenase, sequence (P08253 whole entry): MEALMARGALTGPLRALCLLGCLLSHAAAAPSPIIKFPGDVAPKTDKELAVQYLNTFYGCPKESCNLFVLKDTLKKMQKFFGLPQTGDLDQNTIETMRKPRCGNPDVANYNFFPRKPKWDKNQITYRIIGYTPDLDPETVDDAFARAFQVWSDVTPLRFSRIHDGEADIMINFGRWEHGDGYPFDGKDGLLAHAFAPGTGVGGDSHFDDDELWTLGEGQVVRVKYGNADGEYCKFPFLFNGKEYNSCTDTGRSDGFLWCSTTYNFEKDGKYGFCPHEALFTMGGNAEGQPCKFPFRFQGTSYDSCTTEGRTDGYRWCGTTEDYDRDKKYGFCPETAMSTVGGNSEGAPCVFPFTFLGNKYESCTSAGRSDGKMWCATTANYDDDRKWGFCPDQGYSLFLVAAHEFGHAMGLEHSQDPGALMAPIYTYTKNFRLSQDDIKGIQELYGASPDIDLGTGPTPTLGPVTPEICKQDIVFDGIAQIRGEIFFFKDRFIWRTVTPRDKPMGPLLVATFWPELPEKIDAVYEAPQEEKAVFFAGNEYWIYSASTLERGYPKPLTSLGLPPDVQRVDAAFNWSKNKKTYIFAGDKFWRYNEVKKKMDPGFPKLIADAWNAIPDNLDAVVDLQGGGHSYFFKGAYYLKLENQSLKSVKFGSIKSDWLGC

26S proteasome non-ATPase regulatory subunit 14, sequence (O00487 whole entry): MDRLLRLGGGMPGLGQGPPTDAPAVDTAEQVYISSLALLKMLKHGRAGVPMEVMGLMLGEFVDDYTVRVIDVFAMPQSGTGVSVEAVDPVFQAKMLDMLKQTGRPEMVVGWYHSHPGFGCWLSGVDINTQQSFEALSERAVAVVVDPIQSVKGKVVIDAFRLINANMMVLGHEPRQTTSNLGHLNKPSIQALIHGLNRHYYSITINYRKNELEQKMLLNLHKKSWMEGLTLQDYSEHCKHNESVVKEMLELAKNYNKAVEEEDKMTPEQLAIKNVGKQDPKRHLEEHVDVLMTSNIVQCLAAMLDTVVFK
Interleukin-8, sequence (P10145 whole entry, the tested form may be a part): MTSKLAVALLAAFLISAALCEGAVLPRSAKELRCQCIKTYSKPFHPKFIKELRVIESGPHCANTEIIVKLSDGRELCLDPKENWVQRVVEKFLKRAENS
Mitochondrial peptide methionine sulfoxide reductase, sequence (P54149 whole entry): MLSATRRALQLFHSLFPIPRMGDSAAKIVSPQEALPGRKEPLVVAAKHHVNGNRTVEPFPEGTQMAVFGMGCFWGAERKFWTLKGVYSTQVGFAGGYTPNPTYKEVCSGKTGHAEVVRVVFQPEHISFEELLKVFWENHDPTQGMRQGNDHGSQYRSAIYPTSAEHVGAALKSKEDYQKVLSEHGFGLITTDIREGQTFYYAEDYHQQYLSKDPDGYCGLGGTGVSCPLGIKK
DNA (cytosine-5)-methyltransferase 1, sequence (P26358 whole entry): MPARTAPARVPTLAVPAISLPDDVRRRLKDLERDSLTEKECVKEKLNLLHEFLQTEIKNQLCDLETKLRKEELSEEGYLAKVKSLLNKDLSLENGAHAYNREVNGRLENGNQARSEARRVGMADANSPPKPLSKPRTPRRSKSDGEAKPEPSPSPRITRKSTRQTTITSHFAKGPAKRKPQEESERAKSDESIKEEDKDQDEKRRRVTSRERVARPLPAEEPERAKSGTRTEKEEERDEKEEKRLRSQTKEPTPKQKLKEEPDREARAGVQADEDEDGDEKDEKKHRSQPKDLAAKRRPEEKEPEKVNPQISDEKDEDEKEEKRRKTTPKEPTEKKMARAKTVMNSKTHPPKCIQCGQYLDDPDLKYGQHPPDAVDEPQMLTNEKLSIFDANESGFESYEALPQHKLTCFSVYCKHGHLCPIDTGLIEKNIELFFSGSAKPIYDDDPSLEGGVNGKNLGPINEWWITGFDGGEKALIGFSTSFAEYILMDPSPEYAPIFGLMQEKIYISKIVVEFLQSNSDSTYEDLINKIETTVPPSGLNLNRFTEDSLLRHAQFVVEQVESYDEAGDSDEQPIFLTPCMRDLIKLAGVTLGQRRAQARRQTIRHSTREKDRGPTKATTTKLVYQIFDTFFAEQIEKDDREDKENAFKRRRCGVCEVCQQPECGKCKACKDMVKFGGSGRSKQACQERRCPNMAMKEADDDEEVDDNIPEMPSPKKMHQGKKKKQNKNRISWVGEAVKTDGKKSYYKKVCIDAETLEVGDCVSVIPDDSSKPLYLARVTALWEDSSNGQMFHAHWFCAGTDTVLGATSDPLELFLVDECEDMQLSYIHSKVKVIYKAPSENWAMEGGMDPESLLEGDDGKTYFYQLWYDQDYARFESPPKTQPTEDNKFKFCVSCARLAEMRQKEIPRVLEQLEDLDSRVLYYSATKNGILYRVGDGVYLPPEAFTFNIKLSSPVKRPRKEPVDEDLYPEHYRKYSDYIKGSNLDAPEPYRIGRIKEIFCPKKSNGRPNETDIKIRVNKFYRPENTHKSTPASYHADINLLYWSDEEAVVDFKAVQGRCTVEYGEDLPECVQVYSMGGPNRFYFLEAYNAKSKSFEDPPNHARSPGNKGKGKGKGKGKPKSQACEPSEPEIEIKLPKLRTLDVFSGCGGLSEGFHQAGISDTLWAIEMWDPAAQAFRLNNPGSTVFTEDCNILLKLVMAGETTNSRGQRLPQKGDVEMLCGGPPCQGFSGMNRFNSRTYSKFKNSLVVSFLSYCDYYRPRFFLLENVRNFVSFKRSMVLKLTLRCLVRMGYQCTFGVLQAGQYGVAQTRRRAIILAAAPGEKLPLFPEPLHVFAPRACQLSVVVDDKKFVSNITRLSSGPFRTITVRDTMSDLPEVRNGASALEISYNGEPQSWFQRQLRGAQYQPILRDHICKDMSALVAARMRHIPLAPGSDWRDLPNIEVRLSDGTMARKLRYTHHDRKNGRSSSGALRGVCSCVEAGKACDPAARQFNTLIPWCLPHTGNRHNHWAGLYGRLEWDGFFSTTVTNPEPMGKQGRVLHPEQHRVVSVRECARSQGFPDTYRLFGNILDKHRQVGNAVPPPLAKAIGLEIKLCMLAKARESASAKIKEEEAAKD

## Cc1c(OCC(=O)N(C)C)ccc2c(-c3ccccc3)cc(=O)oc12
[1]
  IC50: 93.6 µM (inactive)

## Cc1noc(C)c1COC(=O)c1cc(C)n(-c2ccccc2)c1C
[2]
  IC50: > 20 µM (inactive)
[3]
  IC50: 6.04 µM (active)
[4]
  EC50: > 53 µM (inactive)

## COc1ccc(O)c(C(c2c(C)[nH][nH]c2=O)c2c(C)[nH][nH]c2=O)c1
[5]
  IC50: 33.6 µM (inactive)
[6]
  IC50: 7.14 µM (active)
[7]
  AC50: 1.42 µM (active)
[8]
  EC50: 1.17 µM (active)

## COc1ccc(-c2cc(=O)oc3c(C)c(O)ccc23)cc1
[9]
  IC50: > 79 µM (inactive)
[10]
  AC50: 5.69 µM (active)
[11]
  AC50: 9.72 µM (active)
[12]
  AC50: 3.8 µM (active)

## Cc1ccc(NC2CCCN(C(=O)c3cccc(-c4ncc[nH]4)c3)C2)cc1C (configuration not stated)
[13]
  IC50: > 49.7 µM (inactive)
[14]
  IC50: 4.48 µM (active)
[15]
  IC50: 2.99 µM (active)
[16]
  IC50: 17.1 µM (inactive)
[17]
  IC50: > 66.2 µM (inactive)
[18]
  IC50: 0.175 µM (active)

## O=C(O)CCCCCN1C(=O)/C(=C/c2cn(-c3ccccc3)nc2-c2cccs2)SC1=S
[19]
  IC50: 29 µM (active)
[20]
  IC50: 7.92 µM (active)
[21]
  IC50: 5.56 µM (active)
[22]
  IC50: 10.3 µM (active)
